Here are results for 23 compounds from patent publication US9745284B2, “2-pyridyloxy-4-ether orexin receptor antagonists” (MERCK SHARP & DOHME CORP., priority 2013, dated 2017).

Structures are written as SMILES.

The target of one experiment is hOX1R (Homo sapiens, UniProt O43613). As to the kind of experiment: FLIPR Ca2+ flux assay, orexin-1 receptor. It counts as cell-based. The note with it: CHO cells expressing orexin-1 receptor; agonist 70 pM Ala-6,12 orexin-A.
The target of the next experiment is human orexin-2 receptor (Homo sapiens (Human), UniProt O43614). As to the kind of experiment: FLIPR Ca2+ flux assay, orexin-2 receptor. Type of experiment: cell-based. Particulars: CHO cells expressing human orexin-2 receptor; agonist 70 pM Ala-6,12 orexin-A; read-out: hOX2R FLIPR IC50. As for the experimental part: The utility of the compounds in accordance with the present invention as orexin receptor OX1R and/or OX2R antagonists may be readily determined without undue experimentation by methodology well known in the art, including the “FLIPR Ca^2+ Flux Assay” (Okumura et al., Biochem. Biophys. Res. Comm. 280:976-981, 2001). In a typical experiment the OX1 and OX2 receptor antagonistic activity of the compounds of the present invention was determined in accordance with the following experimental method. For intracellular calcium measurements, Chinese hamster ovary (CHO) cells expressing the rat orexin-1 receptor or the human orexin-2 receptor, are grown in Iscove's modified DMEM containing 2 mM L-glutamine, […], 1% hypoxanthine-thymidine supplement, 100 U/ml penicillin, 100 μg/ml streptomycin and 10% heat-inactivated fetal calf serum (FCS). The cells are seeded at 20,000 cells/well into Becton-Dickinson black 384-well clear bottom sterile plates coated with poly-D-lysine. All reagents were from GIBCO-Invitrogen Corp. The seeded plates are incubated overnight at 37° C. and 5% CO2. Ala-6,12 human orexin-A as the agonist is prepared as a 1 mM stock solution in 1% bovine serum albumin (BSA) and diluted in assay buffer (HBSS containing 20 mM HEPES, 0.1% BSA and 2.5 mM probenecid, pH7.4) for use in the assay at a final concentration of 70 pM. Test compounds are prepared as 10 mM stock solution in DMSO, then diluted in 384-well plates, first in DMSO, then assay buffer. On the day of the assay, cells are washed 3 times with 100 μl assay buffer and then incubated for 60 min (37° C., 5% CO2) in 60 μl assay buffer containing 1 μM Fluo-4AM ester, 0.02% pluronic acid, and 1% BSA. The dye loading solution is then aspirated and cells are washed 3 times with 100 μl assay buffer. 30 μl of that same buffer is left in each well. Within the Fluorescent Imaging Plate Reader (FLIPR, Molecular Devices), test compounds are added to the plate in a volume of 25 μl, incubated for 5 min and finally 25 μl of agonist is added. Fluorescence is measured for each well at 1 second intervals for 5 minutes and the height of each fluorescence peak is compared to the height of the fluorescence peak induced by 70 pM Ala-6,12 orexin-A with buffer in place of antagonist. For each antagonist, IC50 value (the concentration of compound needed to inhibit 50% of the agonist response) is determined. Alternatively, compound potency can be assessed by a radioligand binding assay (described in Bergman et. al. Bioorg. Med. Chem. Lett. 2008, 18, 1425-1430) in which the inhibition constant (Ki) is determined in membranes prepared from CHO cells expressing either the OX1 or OX2 receptor. The intrinsic orexin receptor antagonist activity of a compound which may be used in the present invention may be determined by these assays.
human orexin-2 receptor, sequence (O43614 whole entry): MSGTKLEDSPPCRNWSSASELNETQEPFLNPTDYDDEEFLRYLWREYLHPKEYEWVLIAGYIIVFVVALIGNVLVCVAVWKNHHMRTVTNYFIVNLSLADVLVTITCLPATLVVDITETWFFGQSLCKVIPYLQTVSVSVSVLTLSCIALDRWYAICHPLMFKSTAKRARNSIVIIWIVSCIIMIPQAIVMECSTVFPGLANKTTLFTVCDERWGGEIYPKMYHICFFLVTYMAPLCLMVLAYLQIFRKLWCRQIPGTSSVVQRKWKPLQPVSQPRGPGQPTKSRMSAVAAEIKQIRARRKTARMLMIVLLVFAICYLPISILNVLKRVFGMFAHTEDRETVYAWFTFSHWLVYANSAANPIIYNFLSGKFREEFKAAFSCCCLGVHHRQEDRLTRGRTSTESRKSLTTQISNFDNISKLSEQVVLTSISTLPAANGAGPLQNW
In general terms: Calcium flux is commonly read through the fluorescence of an indicator in the cells.

By IC50 is commonly meant the concentration that gives 50% inhibition. Regarding `COc1ccnc(O[C@@H]2CC[C@@H](C)N(C(=O)c3ccccc3-n3nccn3)C2)c1Br` [Example 3, 3-bromo-4-methoxy-2-{[(3R,6R)-6-methyl-1-{[2-(2H-1,2,3-triazol-2-yl)phenyl]carbonyl}piperidin-3-yl]oxy}pyridine], the IC50 at hOX1R was determined as 843 nM; at human orexin-2 receptor it was 14.7 nM.

For `COc1ccnc(O[C@@H]2CC[C@@H](C)N(C(=O)c3ccc(OC)cc3-n3nccn3)C2)c1` [Example 20, 4-methoxy-2-{[(3R,6R)-1-{[4-methoxy-2-(2H-1,2,3-triazol-2-yl)phenyl]carbonyl}-6-methylpiperidin-3-yl]oxy}pyridine], the 50% inhibitory concentration (IC50) was found to be 10000 nM on hOX1R and 114 nM on human orexin-2 receptor.

Turning to `COc1ccnc(O[C@@H]2CC[C@@H](C)N(C(=O)c3ccccc3-n3nccn3)C2)c1C` [Example 48, 4-Methoxy-3-methyl-2-{[(3R,6R)-6-methyl-1-{[2-(2H-1,2,3-triazol-2-yl)phenyl]carbonyl}piperidin-3-yl]oxy}pyridine], the IC50 at hOX1R stood at 568 nM; on human orexin-2 receptor it was 9.7 nM.

For `COc1ccnc(O[C@@H]2CC[C@@H](C)N(C(=O)c3ccccc3C3CC3)C2)c1` [Example 12, 2-({(3R,6R)-1-[(2-cyclopropylphenyl)carbonyl]-6-methylpiperidin-3-yl}oxy)-4-methoxypyridine], the half-maximal inhibitory concentration (IC50) at hOX1R stood at 938 nM; on human orexin-2 receptor it was 11 nM. On the same counts, the results for `C[C@@H]1CC[C@@H](Oc2cc(OC(F)F)ccn2)CN1C(=O)c1ccccc1-n1nccn1` [Example 52, (2-(2H-1,2,3-Triazol-2-yl)phenyl)((2R,5R)-5-((4-(difluoromethoxy)pyridin-2-yl)oxy)-2-methylpiperidin-1-yl)methanone] are 194 nM and 4 nM. On the same counts, the results for `CCOc1ccnc(O[C@@H]2CC[C@@H](C)N(C(=O)c3ccccc3-n3ncnn3)C2)c1` [Example 8, 4-ethoxy-2-{[(3R,6R)-6-methyl-1-{[2-(2H-tetrazol-2-yl)phenyl]carbonyl}piperidin-3-yl]oxy}pyridine] are 2010 nM and 35.4 nM. As for `C[C@@H]1CC[C@@H](Oc2cc(OCC(F)(F)F)ccn2)CN1C(=O)c1ccccc1-n1nccn1` [Example 28, (2-(2H-1,2,3-triazol-2-yl)phenyl)((2R,5R)-2-methyl-5-((4-(2,2,2-trifluoroethoxy)pyridin-2-yl)oxy)piperidin-1-yl)methanone], the IC50 on hOX1R was found to be 1340 nM; on human orexin-2 receptor, 8 nM. The like results for `COc1ccnc(O[C@@H]2CC[C@@H](C)N(C(=O)c3ccc(F)cc3-n3nccn3)C2)c1` [Example 19, 2-{[(3R,6R)-1-{[4-fluoro-2-(2H-1,2,3-triazol-2-yl)phenyl]carbonyl}-6-methylpiperidin-3-yl]oxy}-4-methoxypyridine] were, in that order, 1800 nM and 22.1 nM.

In the case of `COc1ccnc(O[C@@H]2CC[C@@H](C)N(C(=O)c3ccccc3-n3ncnn3)C2)c1` [Example 6, 4-Methoxy-2-{[(3R,6R)-6-methyl-1-{[2-(2H-tetrazol-2-yl)phenyl]carbonyl}piperidin-3-yl]oxy}pyridine], the figures for the half-maximal inhibitory concentration (IC50) at hOX1R and on human orexin-2 receptor were 2180 nM and 19 nM, respectively. The like results for `CC(C)COc1ccnc(O[C@@H]2CC[C@@H](C)N(C(=O)c3ccccc3-n3nccn3)C2)c1` [Example 42, 4-(2-methylpropoxy)-2-{[(3R,6R)-6-methyl-1-{[2-(2H-1,2,3-triazol-2-yl)phenyl]carbonyl}piperidin-3-yl]oxy}pyridine] were, in that order, 5610 nM and 134 nM.

For the compound `CCOc1ccccc1C(=O)N1C[C@H](Oc2cc(OC)ccn2)CC[C@H]1C` [Example 14, 2-({(3R,6R)-1-[(2-ethoxyphenyl)carbonyl]-6-methylpiperidin-3-yl}oxy)-4-methoxypyridine], the half-inhibitory concentration (IC50) at hOX1R stood at 1980 nM; at human orexin-2 receptor it was 34.8 nM. In the case of `CCOc1ccnc(O[C@@H]2CC[C@@H](C)N(C(=O)c3ccsc3-n3nccn3)C2)c1` [Example 62, 4-ethoxy-2-{[(3R,6R)-6-methyl-1-{[2-(2H-1,2,3-triazol-2-yl)thiophen-3-yl]carbonyl}piperidin-3-yl]oxy}pyridine], the IC50 on hOX1R worked out at 1160 nM; on human orexin-2 receptor it was 22 nM. The like results for `CC(C)Oc1ccnc(O[C@@H]2CC[C@@H](C)N(C(=O)c3ccccc3-c3ncccn3)C2)c1` [Example 44, 2-(2-{[(2R,5R)-2-Methyl-5-{[4-(1-methylethoxy)pyridin-2-yl]oxy}piperidin-1-yl]carbonyl}phenyl)pyrimidine] were, in that order, 1640 nM and 67 nM. The like results for `C[C@@H]1CC[C@@H](Oc2cc(OC(F)F)ccn2)CN1C(=O)c1ccsc1-n1nccn1` [Example 54, (2-(2H-1,2,3-Triazol-2-yl)thiophen-3-yl)((2R,5R)-5-((4-(difluoromethoxy)pyridin-2-yl)oxy)-2-methylpiperidin-1-yl)methanone] were, in that order, 1020 nM and 11 nM. On the same counts, the results for `COc1ccnc(O[C@@H]2CC[C@@H](C)N(C(=O)c3c(F)cccc3-n3nccn3)C2)c1` [Example 17, 2-{[(3R,6R)-1-{[2-fluoro-6-(2H-1,2,3-triazol-2-yl)phenyl]carbonyl}-6-methylpiperidin-3-yl]oxy}-4-methoxypyridine] are 1600 nM and 27 nM.

As to `C[C@@H]1CC[C@@H](Oc2cc(OCC(F)F)ccn2)CN1C(=O)c1cccc(F)c1-n1nccn1` [Example 34, 4-(2,2-difluoroethoxy)-2-{[(3R,6R)-1-{[3-fluoro-2-(2H-1,2,3-triazol-2-yl)phenyl]carbonyl}-6-methylpiperidin-3-yl]oxy}pyridine], the IC50 at hOX1R was 2140 nM; on human orexin-2 receptor, 42 nM. On the same counts, the results for `CCOc1ccnc(O[C@@H]2CC[C@@H](C)N(C(=O)c3ccccc3-n3nccn3)C2)c1` [Example 1, 4-Ethoxy-2-{[(3R,6R)-6-methyl-1-{[2-(2H-1,2,3-triazol-2-yl)phenyl]carbonyl}piperidin-3-yl]oxy}pyridine] are 859 nM and 20.5 nM. Turning to `COc1ccnc(O[C@@H]2CC[C@@H](C)N(C(=O)c3ccccc3-n3nccn3)C2)c1F` [Example 49, 3-Fluoro-4-methoxy-2-{[(3R,6R)-6-methyl-1-{[2-(2H-1,2,3-triazol-2-yl)phenyl]carbonyl}piperidin-3-yl]oxy}pyridine], the values for the half-inhibitory concentration (IC50) at hOX1R and at human orexin-2 receptor were 10000 nM and 71 nM, respectively. On the same counts, the results for `C[C@@H]1CC[C@@H](Oc2cc(OCC(F)F)ccn2)CN1C(=O)c1ccsc1-n1nccn1` [Example 60, (2-(2H-1,2,3-Triazol-2-yl)thiophen-3-yl)((2R,5R)-5-((4-(2,2-difluoroethoxy)pyridin-2-yl)oxy)-2-methylpiperidin-1-yl)methanone] are 2020 nM and 22 nM. Regarding `C[C@@H]1CC[C@@H](Oc2cc(OC(F)F)ccn2)CN1C(=O)c1ccccc1-n1ncnn1` [Example 57, 4-(difluoromethoxy)-2-{[(3R,6R)-6-methyl-1-{[2-(2H-tetrazol-2-yl)phenyl]carbonyl}piperidin-3-yl]oxy}pyridine], the half-maximal inhibitory concentration (IC50) at hOX1R worked out at 1690 nM; on human orexin-2 receptor, 11 nM. On the same counts, the results for `COc1ccnc(O[C@@H]2CC[C@@H](C)N(C(=O)c3ccc(OC)nc3C3CC3)C2)c1` [Example 21, 2-cyclopropyl-6-methoxy-3-({(2R,5R)-5-[(4-methoxypyridin-2-yl)oxy]-2-methylpiperidin-1-yl}carbonyl) pyridine] are 8190 nM and 38.3 nM. On the same counts, the results for `C[C@@H]1CC[C@@H](Oc2cc(OCC(F)F)ccn2)CN1C(=O)c1ccccc1-n1ncnn1` [Example 29, 4-(2,2-difluoroethoxy)-2-{[(3R,6R)-6-methyl-1-{[2-(2H-tetrazol-2-yl)phenyl]carbonyl}piperidin-3-yl]oxy}pyridine] are 8070 nM and 29 nM. On to `COc1ccnc(O[C@@H]2CC[C@@H](C)N(C(=O)c3ccsc3-n3nccn3)C2)c1` [Example 59, 4-methoxy-2-{[(3R,6R)-6-methyl-1-{[2-(2H-1,2,3-triazol-2-yl)thiophen-3-yl]carbonyl}piperidin-3-yl]oxy}pyridine], for which, at human orexin-2 receptor, the IC50 was 11 nM.
